Where two headings read alike, the source gives them in different places.

Experimental findings from US20260327211A1, “MODULATORS OF A POTASSIUM CHANNEL AND OF TRPV1 CHANNEL AND USES THEREOF” (Bsense Bio Therapeutics Ltd., priority 2023, published 2026) are described below.

Data set [1] deals with rats. In words: Hot plate (53° C.). Format: in vivo, rat. As for the experimental part:
Hot Plate: Animals were placed on hot plate analgesia meter (IITC Life Science Inc., CA, USA) set to 53±1° C., and the time until the first escape response was observed was recorded. A response was considered when the animals lifted or licked their leg or performed kicking behavior.

A further data set concerns the target T1, adrenergic β2 (Homo sapiens, UniProt P07550).
T1 construct: Eurofins DiscoverX, USA
In words: Functional selectivity panel, adrenergic β2. Format: biochemical. As for the experimental part:
A broad panel of 78 recombinant targets was tested for pharmacologic activity in vitro through a variety of functional assays (Eurofins DiscoverX, USA), as part of the National Institute of Neurological Disorders and Stroke (NINDS) Preclinical Screening Platform for Pain (PSPP) program. The biological targets for the in vitro profiling have been selected based on avoiding opioid receptor stimulation and targets known to be associated with adverse events or targeted by drugs of abuse. […] For each test, a reference compound was evaluated at the target of interest as a positive control.

Another data set has as its target T2, CYP2C8 (Homo sapiens, UniProt P10632).
T2 construct: pre-incubation of the human liver microsomes with the test compound; tissue Corning; host or cells: human liver microsomes
T2 sequence (P10632 1-490): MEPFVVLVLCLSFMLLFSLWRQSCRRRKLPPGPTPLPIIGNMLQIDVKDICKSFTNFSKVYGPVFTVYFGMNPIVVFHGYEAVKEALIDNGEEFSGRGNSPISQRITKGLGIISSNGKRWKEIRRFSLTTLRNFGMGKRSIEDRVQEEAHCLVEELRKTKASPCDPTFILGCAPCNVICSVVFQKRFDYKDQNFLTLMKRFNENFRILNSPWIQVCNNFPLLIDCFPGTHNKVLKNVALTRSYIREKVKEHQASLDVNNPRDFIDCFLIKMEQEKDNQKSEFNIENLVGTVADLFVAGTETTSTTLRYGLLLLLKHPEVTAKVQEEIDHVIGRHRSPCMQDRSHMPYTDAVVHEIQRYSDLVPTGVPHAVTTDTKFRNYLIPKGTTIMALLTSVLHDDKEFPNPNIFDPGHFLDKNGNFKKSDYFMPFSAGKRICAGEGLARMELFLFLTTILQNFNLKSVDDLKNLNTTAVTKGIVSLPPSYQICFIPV
In words: CYP inhibition / time-dependent inhibition, CYP2C8_Amodiaquine. The format is in vitro ADME. The settings on record: role: inhibitor. The protocol: The time-dependent inactivation potency of the test compound to CYP enzymatic activities was assessed by the pre-incubation of the human liver microsomes with the test compound in the presence and absence of NADPH, followed by the incubation with the discrete marker substrates, as follows.
Pre-incubation with human liver microsomes (HLMs): The TDI inactivation potency on CYP enzymatic activities was evaluated through pre-incubation with HLMs (Corning). A liver microsome mixture at a concentration of 0.1 mg/mL, and the test compound at 8 different concentrations (0, 0.05, 0.165, 0.5, 1.65, 5.0, 16.5, or 50.0 μM) was warmed at 37° C. for 10 minutes. Concurrently, a set of known time-dependent inactivators was also prepared in duplicate for comparison. Following this, NADPH (1.0 mM) was added to one group (Group 1), and an equal volume of potassium phosphate buffer to the second group (Group 2), marking the beginning of a 30-minute pre-incubation at 37° C.
Incubation: After pre-incubation, the marker substrate, or marker substrate plus NADPH was added to the mixture, thereby initiating the incubation. The duration of the incubation was dependent on the type of CYP isoform being evaluated. For example, with the CYP3A isoform, the mixture was incubated over 3 minutes utilizing midazolam as the marker substrate (2.0 μM), verapamil as the standard inactivator (3.5 μM).
Termination of Reaction: Following the incubation, ice-cooled acetonitrile containing the internal standard (IS) was added to halt the reactions. Metabolites generated from the marker substrates were then measured via LC-MS/MS, assessed based on peak area ratios of the analyte to IS.

Data set [2] concerns rats. The data set is described as follows: Accelerating rotarod. The format is in vivo, rat. As for the experimental part:
Rotarod: There were two days of training in which rats were trained at a constant speed of 5 RPM for 180 seconds. After each fall the rats were placed back on the rotating rod until 180 seconds were reached. Then, the actual test started on study day 0 using the accelerating rotarod methodology. Animals were placed on the rod, which was accelerated 5-40 RPM over 180 seconds. Acceleration rate (0.19 RPM/second) was calculated from delta velocity (v2−v1) divided by delta time (t2−t1). The time to the first fall of each animal was documented, in addition to the distance and speed.

T1 sequence (P07550 whole entry): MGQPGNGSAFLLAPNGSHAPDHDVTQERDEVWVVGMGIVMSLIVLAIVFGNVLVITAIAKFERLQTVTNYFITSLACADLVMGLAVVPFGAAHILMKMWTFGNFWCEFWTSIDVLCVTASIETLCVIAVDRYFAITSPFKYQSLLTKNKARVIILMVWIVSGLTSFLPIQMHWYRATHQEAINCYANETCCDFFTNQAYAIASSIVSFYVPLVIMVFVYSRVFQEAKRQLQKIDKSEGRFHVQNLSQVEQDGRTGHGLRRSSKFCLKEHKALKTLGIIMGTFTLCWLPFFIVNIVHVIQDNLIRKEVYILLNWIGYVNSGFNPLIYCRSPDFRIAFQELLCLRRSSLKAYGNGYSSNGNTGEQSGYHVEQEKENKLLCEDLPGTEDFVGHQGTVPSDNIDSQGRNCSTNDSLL

For `O=C(Cc1nccc(-n2cc(Cl)c3cc(Cl)cc(Cl)c32)n1)NC1COCC1O` (stereo not drawn) [Compound 760], in the data set on rats [1] (up to 300 mg/kg oral), the “Hot-plate response” value was “displayed safety potential at up to 300 mg/kg oral dosing”. For the same compound, the IC50 at adrenergic β2 (antagonist, read-out: IC/EC50 Adrenergic β2-antagonist) amounted to 46 µM; at CYP2C8 (Table 9, read-out: CYP inhibition IC50 CYP2C8), 49.2 µM. Also, in the data set with rats [2] (up to 300 mg/kg oral), the “Rotarod” value is recorded as “displayed safety potential at up to 300 mg/kg oral dosing”.
As to `O=C(Cc1cncc(-n2cc(Cl)c3cc(Cl)cc(Cl)c32)c1)N[C@@H]1COC[C@H]1O` [Compound 661], the “Hot plate escape latency” value in the data set with rats [1] (20 and 50 mg/kg PO, 2-10 hours post-dose) was “no significant effect on escape latency”. Besides, the IC50 turned out to be 4 µM at adrenergic β2 (read-out: adrenergic β2 IC50); 16.5 µM on CYP2C8 ((+)NADPH pre-incubation, substrate amodiaquine, read-out: IC50 (+)NADPH CYP2C8_Amodiaquine); 14.3 µM at CYP2C8 ((−)NADPH pre-incubation, substrate amodiaquine, read-out: IC50 (−)NADPH CYP2C8_Amodiaquine). In the data set on rats [2] (20 and 50 mg/kg PO, 1 and 4 hour post-dose), the “Rotarod performance” value is “did not affect rotarod performance”.
